Test results: patent publication US20260262643A1, “HERBICIDAL BENZOXAZINES” (FMC CORPORATION, priority 2022, published 2026)

What was measured:
[1] = test system: barnyardgrass; assay: Test C preemergence; type: in vivo, Echinochloa crusgalli; conditions: 0 to 100 scale (0 no effect, 100 complete control)
How it was run: (§1)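 Seeds sown in loam soil–sand blend received a directed preemergence soil spray of test chemical in non-phytotoxic solvent with surfactant; postemergence plants (2–10 cm, one- to two-leaf stage) were sprayed with the same formulation. Greenhouse-held 10 days, then visually rated for injury versus untreated controls, 0 (no effect) to 100 (complete control).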

[2] = test system: blackgrass; assay: Test C preemergence; type: in vivo, Alopecurus myosuroides; conditions: 0 to 100 scale (0 no effect, 100 complete control)
How it was run: as §1

[3] = test system: corn; assay: Test C preemergence; type: in vivo, Zea mays; conditions: 0 to 100 scale (0 no effect, 100 complete control)
How it was run: as §1

[4] = test system: green foxtail; assay: Test C preemergence; type: in vivo, Setaria viridis; conditions: 0 to 100 scale (0 no effect, 100 complete control)
How it was run: as §1

[5] = test system: kochia; assay: Test C preemergence; type: in vivo, Bassia scoparia; conditions: 0 to 100 scale (0 no effect, 100 complete control)
How it was run: as §1

[6] = test system: oat, wild; assay: Test C preemergence; type: in vivo, Avena fatua; conditions: 0 to 100 scale (0 no effect, 100 complete control)
How it was run: as §1

[7] = test system: pigweed, palmer; assay: Test C preemergence; type: in vivo, Amaranthus palmeri; conditions: 0 to 100 scale (0 no effect, 100 complete control)
How it was run: as §1

[8] = test system: ragweed; assay: Test C preemergence; type: in vivo, Ambrosia artemisiifolia; conditions: 0 to 100 scale (0 no effect, 100 complete control)
How it was run: as §1

[9] = test system: ryegrass, Italian; assay: Test C preemergence; type: in vivo, Lolium multiflorum; conditions: 0 to 100 scale (0 no effect, 100 complete control)
How it was run: as §1

[10] = test system: soybean; assay: Test C preemergence; type: in vivo, Glycine max; conditions: 0 to 100 scale (0 no effect, 100 complete control)
How it was run: as §1

[11] = test system: wheat; assay: Test C preemergence; type: in vivo, Triticum aestivum; conditions: 0 to 100 scale (0 no effect, 100 complete control)
How it was run: as §1

[12] = test system: barnyardgrass; assay: Test C postemergence; type: in vivo, Echinochloa crusgalli; conditions: 10 days
How it was run: as §1

[13] = test system: blackgrass; assay: Test C postemergence; type: in vivo, Alopecurus myosuroides; conditions: 10 days
How it was run: as §1

[14] = test system: corn; assay: Test C postemergence; type: in vivo, Zea mays; conditions: 10 days
How it was run: as §1

[15] = test system: green foxtail; assay: Test C postemergence; type: in vivo, Setaria viridis; conditions: 10 days
How it was run: as §1

[16] = test system: kochia; assay: Test C postemergence; type: in vivo, Bassia scoparia; conditions: 10 days
How it was run: as §1

[17] = test system: oat, wild; assay: Test C postemergence; type: in vivo, Avena fatua; conditions: 10 days
How it was run: as §1

[18] = test system: pigweed, palmer; assay: Test C postemergence; type: in vivo, Amaranthus palmeri; conditions: 10 days
How it was run: as §1

[19] = test system: ragweed; assay: Test C postemergence; type: in vivo, Ambrosia artemisiifolia; conditions: 10 days
How it was run: as §1

[20] = test system: ryegrass, Italian; assay: Test C postemergence; type: in vivo, Lolium multiflorum; conditions: 10 days
How it was run: as §1

[21] = test system: soybean; assay: Test C postemergence; type: in vivo, Glycine max; conditions: 10 days
How it was run: as §1

[22] = test system: wheat; assay: Test C postemergence; type: in vivo, Triticum aestivum; conditions: 10 days
How it was run: as §1

[23] = test system: galium; assay: Test C postemergence; type: in vivo, Galium aparine; conditions: 10 days
How it was run: as §1

[24] = test system: horseweed; assay: Test C postemergence; type: in vivo, Erigeron canadensis; conditions: 10 days
How it was run: as §1

[25] = test system: barnyardgrass; assay: Test D flooded paddy test; type: in vivo, Echinochloa crus-galli; conditions: 250 g ai/ha, applied to paddy water, visual rating after 13 to 14 days, scale 0 to 100 (0 no effect, 100 complete control)
How it was run: (§2)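 At the 2-leaf stage, floodwater 3 cm deep received the test compound; that depth persisted throughout. Plants scored visually 13 to 14 days on, 0 (no effect) to 100 (complete control), dash indicating no result.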

[26] = test system: ducksalad; assay: Test D flooded paddy test; type: in vivo, Heteranthera limosa; conditions: 250 g ai/ha, applied to paddy water, visual rating after 13 to 14 days, scale 0 to 100 (0 no effect, 100 complete control)
How it was run: as §2

[27] = test system: rice; assay: Test D flooded paddy test; type: in vivo, Oryza sativa; conditions: 250 g ai/ha, applied to paddy water, visual rating after 13 to 14 days, scale 0 to 100 (0 no effect, 100 complete control)
How it was run: as §2

[28] = test system: sedge, umbrella; assay: Test D flooded paddy test; type: in vivo, Cyperus difformis; conditions: 250 g ai/ha, applied to paddy water, visual rating after 13 to 14 days, scale 0 to 100 (0 no effect, 100 complete control)
How it was run: as §2

[29] = Preemergence, 500 g ai/ha, visual rating after 10 days
[30] = Test C, preemergence, 125 g ai/ha
[31] = 125 g ai/ha, postemergence, 0 to 100 scale, 0 no effect, 100 complete control
[32] = Postemergence, 500 g ai/ha, visual 0 to 100 scale (0 no effect, 100 complete control)

Q: With `C[C@H]1CN(C(=O)c2cc(-n3cncn3)cc3c2OCCO3)c2cccc(Cl)c2O1` [Compound 153] as the compound, how does the “Barnyardgrass plant response rating” value ([1]; 125 g ai/ha, preemergence) read?
A: The value was 80.

Q: What about the “Plant response rating, Barnyardgrass” value [1, 29] of the same compound?
A: The value was 100.

Q: And the “Plant response rating, Blackgrass” value [2, 29]?
A: Its value is 60.

Q: What about the “Blackgrass plant response rating” value [2, 30] of the same compound?
A: The value was 20.

Q: What about the “Plant response rating, Corn” value [3, 29] of the same compound?
A: Its value is 30.

Q: And the “Corn plant response rating” value [3, 30]?
A: The value was 10.

Q: And the “Plant response rating, Foxtail, Green” value [4, 29]?
A: Its value is 100.

Q: What about the “Foxtail, Green plant response rating” value [4, 30] of the same compound?
A: The value was 100.

Q: And the “Plant response rating, Kochia” value [5, 29]?
A: The value was 60.

Q: And the “Kochia plant response rating” value [5, 30]?
A: Its value is 0.

Q: And the “Plant response rating, Oat, Wild” value [6, 29]?
A: Its value is 80.

Q: What about the “Oat, Wild plant response rating” value [6, 30] of the same compound?
A: Its value is 40.

Q: And the “Plant response rating, Pigweed, Palmer” value [7, 29]?
A: The value was 100.

Q: And the “Pigweed, Palmer plant response rating” value [7, 30]?
A: Its value is 100.

Q: And the “Plant response rating, Ragweed” value [8, 29]?
A: Its value is 100.

Q: And the “Ragweed plant response rating” value [8, 30]?
A: Its value is 80.

Q: And the “Plant response rating, Ryegrass, Italian” value [9, 29]?
A: Its value is 90.

Q: And the “Ryegrass, Italian plant response rating” value [9, 30]?
A: Its value is 90.

Q: And the “Plant response rating, Soybean” value [10, 29]?
A: The value was 100.

Q: What about the “Soybean plant response rating” value [10, 30] of the same compound?
A: The value was 100.

Q: What about the “Plant response rating, Wheat” value [11, 29] of the same compound?
A: The value was 90.

Q: And the “Wheat plant response rating” value [11, 30]?
A: The value was 20.

Q: And the “Plant response rating, Barnyardgrass” value [12, 31]?
A: The value was 90.

Q: What about the “Plant response rating, Barnyardgrass” value [12, 32] of the same compound?
A: Its value is 90.

Q: And the “Plant response rating, Blackgrass” value [13, 31]?
A: The value was 90.

Q: What about the “Plant response rating, Blackgrass” value [13, 32] of the same compound?
A: The value was 90.

Q: What about the “Plant response rating, Corn” value [14, 31] of the same compound?
A: Its value is 80.

Q: What about the “Plant response rating, Corn” value [14, 32] of the same compound?
A: Its value is 90.

Q: And the “Plant response rating, Foxtail, Green” value [15, 31]?
A: The value was 90.

Q: What about the “Plant response rating, Foxtail, Green” value [15, 32] of the same compound?
A: Its value is 90.

Q: And the “Plant response rating, Kochia” value [16, 31]?
A: The value was 60.

Q: What about the “Plant response rating, Kochia” value [16, 32] of the same compound?
A: Its value is 90.

Q: What about the “Plant response rating, Oat, Wild” value [17, 31] of the same compound?
A: Its value is 50.

Q: What about the “Plant response rating, Oat, Wild” value [17, 32] of the same compound?
A: Its value is 70.

Q: And the “Plant response rating, Pigweed, Palmer” value [18, 31]?
A: Its value is 70.

Q: And the “Plant response rating, Pigweed, Palmer” value [18, 32]?
A: The value was 100.

Q: What about the “Plant response rating, Ragweed” value [19, 31] of the same compound?
A: The value was 80.

Q: What about the “Plant response rating, Ragweed” value [19, 32] of the same compound?
A: The value was 100.

Q: And the “Plant response rating, Ryegrass, Italian” value [20, 31]?
A: Its value is 90.

Q: And the “Plant response rating, Ryegrass, Italian” value [20, 32]?
A: Its value is 100.

Q: And the “Plant response rating, Soybean” value [21, 31]?
A: The value was 100.

Q: What about the “Plant response rating, Soybean” value [21, 32] of the same compound?
A: The value was 100.

Q: And the “Plant response rating, Wheat” value [22, 31]?
A: The value was 90.

Q: And the “Plant response rating, Wheat” value [22, 32]?
A: The value was 90.

Q: What about the “Plant response rating, Galium” value [23, 31] of the same compound?
A: The value was 90.

Q: What about the “Plant response rating, Galium” value [23, 32] of the same compound?
A: Its value is 100.

Q: What about the “Plant response rating, Horseweed” value [24, 31] of the same compound?
A: The value was 60.

Q: What about the “Plant response rating, Horseweed” value [24, 32] of the same compound?
A: Its value is 50.

Q: And the “Plant response rating, Barnyardgrass (Flood)” value [25]?
A: Its value is 35.

Q: And the “Plant response rating, Ducksalad (Flood)” value [26]?
A: Its value is 70.

Q: And the “Plant response rating, Rice (Flood)” value [27]?
A: Its value is 15.

Q: What about the “Plant response rating, Sedge, Umbrella (Flood)” value [28] of the same compound?
A: The value was 98.
